In series [1] the test system is pancreatic beta cells. The following applies: effect due to regeneration of pancreatic beta cells; claim questioned by Kolb et al and Sheehan et al; cited from earlier work.
Series [2] in a line: hypoglycaemic / anti-diabetic activity of the isolated compound (no test described). The following applies: stated without test details.

Consider `Oc1cc(O)c2c(c1)O[C@H](c1ccc(O)c(O)c1)[C@H](O)C2` [(−)-epicatechin], for which the hypoglycemic principle entry in series [1] is reported as “active hypoglycemic principle”.

Regarding `O=C1c2ccc(O)c(C3OC(CO)C(O)C(O)C3O)c2OC1(O)Cc1ccc(O)cc1` [formula 1, 2,6-dihydroxy-2-(P-hydroxybenzyl)-3(2H)benzofuran-7-C-β-D-glucopyranoside], the melting point (in general, the temperature of the solid-liquid transition) was 157 to 158 °C. The hypoglycaemic activity result in series [2] is “shows hypoglycaemic activity”. In addition, in series [2] (listed as 2,6-dihydroxy-2-(P-hydroxybenzyl)-3(2H)benzofuran-7-C-β-D-glucopyranoside), the anti-diabetic activity entry is “possesses anti-diabetic activity”. Moreover, in series [2] (listed as 2,6-dihydroxy-2-(p-hydroxybenzyl)-3(2H)benzofuran-7-C-β-D-glucopyranoside), the anti-diabetic activity result is “antidiabetic activity”.

These data come from patent US6617313B1, “Glucopyranoside and process of isolation thereof from pterocarpus marsupium pharmaceutical composition containing the same and use thereof” (Council of Scientific and Industrial Research, priority 2002, dated 2003).
